What all share (assay type): cell-based
For experiment [1], the system named is NCI-H524 human small cell lung cancer cells. As to the kind of experiment: H524 assay: inhibition of cell proliferation (CellTiter Glo). The settings on record: 2 h treatment, washout, additional 70 h incubation. The method in brief:
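Proliferation was measured by CellTiter Glo 70 h after a washout that followed a 2 h pulse of NDC. Doses were an 11-point, two-fold dilution series from 1 uM. IC50 was fitted with a four-parameter model to luminescence-based % inhibition relative to control cells.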
Background: ATP-based viability assays read luminescence as a measure of living cells.

Experiment [2] concerns the target T1, SST2 (Homo sapiens, UniProt P30874).
T1 construct: host or cells: PathHunter CHO-K1 SST2 cells
Description: PathHunter CHO-K1 SST2 Internalization Assay. The settings on record: PathHunter CHO-K1 SST2 cells; 90 min at 37 C; luminescence; read-out: Internalization EC50. In outline:
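Four-parameter nonlinear fits of background-corrected luminescence (duplicate means) gave IC50s. NDCs were serially diluted 1:3 over 11 points from a 10 uM final top concentration and incubated 90 min at 37 C with human SST2 CHO-K1 cells plated 48 h earlier at 2500/well. Beta-Glo read-out developed 60 min at RT.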

Experiment [3] addresses T2, human somatostatin receptor subtype 2 (Homo sapiens, UniProt P30874).
T2 construct: expressed in transfected cells
As to the kind of experiment: Functional assay for SSTR2 agonists (HTRF cAMP). Particulars: CHO-K1 cells stably expressing human SST2; NKH477-stimulated cAMP; 20 min at 37 C; read-out: hSST2 cAMP Avg EC50. The method in brief:
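Agonist activity read as fall in intracellular cAMP: HTRF 665/620 nm ratio regressed to a cAMP standard curve, EC50 fitted. Stable human SSTR2 CHO-K1 cells exposed 20 min at 37 °C to compound, final concentrations typically 0-10,000 nM.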
(In general: TR-FRET usually uses a lanthanide donor and a delayed reading to cut background.)

T2 sequence (P30874 whole entry): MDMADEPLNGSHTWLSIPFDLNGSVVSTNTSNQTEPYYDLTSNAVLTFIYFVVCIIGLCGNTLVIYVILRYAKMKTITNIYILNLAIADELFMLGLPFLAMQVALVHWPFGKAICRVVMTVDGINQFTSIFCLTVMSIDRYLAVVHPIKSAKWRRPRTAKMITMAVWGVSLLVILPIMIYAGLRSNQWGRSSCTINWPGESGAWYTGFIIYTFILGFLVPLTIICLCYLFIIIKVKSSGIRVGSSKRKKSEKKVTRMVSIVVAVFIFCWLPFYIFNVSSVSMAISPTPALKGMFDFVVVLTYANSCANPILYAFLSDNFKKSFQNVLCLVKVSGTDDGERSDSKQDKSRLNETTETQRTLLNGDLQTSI
T1 sequence (P30874 whole entry): as above

For orientation: EC50 means the midpoint of the concentration-response curve. With `CC[C@H](C)[C@@H]([C@@H](CC(=O)N1CCC[C@H]1[C@H](OC)[C@@H](C)C(=O)N[C@H](C)[C@@H](O)c1ccccc1)OC)N(C)C(=O)[C@@H](NC(=O)[C@H](C(C)C)N(C)C(=O)OCc1ccc(NC(=O)[C@H](CCCNC(N)=O)NC(=O)[C@@H](NC(=O)CN(C)C(=O)CCOCCC(=O)NCCNc2ncc(-c3cc(C)cc(F)c3)c(N3CCC(N)CC3)c2-c2nc3ccc(Cl)cc3[nH]2)C(C)C)c(O[C@@H]2O[C@H](C(=O)O)[C@@H](O)[C@H](O)[C@H]2O)c1)C(C)C` [Compound 118], the EC50 in experiment [1] turned out to be 22 nM; in experiment [2], 9.3 nM; in experiment [3], 0.24 nM.
On the same counts, the results for `CC[C@H](C)[C@@H]([C@@H](CC(=O)N1CCCC1[C@H](OC)[C@@H](C)C(=O)N[C@H](C)[C@@H](O)c1ccccc1)OC)N(C)C(=O)[C@@H](NC(=O)[C@H](C(C)C)N(C)C(=O)OCc1ccc(NC(=O)[C@H](CCCNC(N)=O)NC(=O)[C@@H](NC(=O)CCOCCC(=O)N(C)CC(=O)NCCNc2ncc(-c3cc(C)cc(F)c3)c(N3CCC(N)CC3)c2-c2nc3ccc(Cl)cc3[nH]2)C(C)C)c(OC)c1)C(C)C` (stereo partly drawn) [Compound 198] are 32 nM, 3.5 nM and 0.082 nM.
For the molecule `CC[C@H](C)[C@@H]([C@@H](CC(=O)N1CCC[C@H]1[C@H](OC)[C@@H](C)C(=O)N[C@H](C)[C@@H](O)c1ccccc1)OC)N(C)C(=O)[C@@H](NC(=O)[C@H](C(C)C)N(C)C(=O)OCc1ccc(NC(=O)[C@H](CCCNC(N)=O)NC(=O)C2(NC(=O)CCOCCC(=O)NCCNc3ncc(-c4cc(C)cc(F)c4)c(N4CCC(N)CC4)c3-c3nc4ccc(Cl)cc4[nH]3)CCC2)c(O[C@H]2O[C@H](C(=O)NCC(=O)O)[C@@H](O)[C@H](O)[C@H]2O)c1)C(C)C` [Compound 210], the concentration giving a half-maximal response (EC50) amounted to 2300 nM in experiment [1], 2.8 nM in experiment [2] and 0.051 nM in experiment [3].
For `CC[C@H](C)[C@@H]([C@@H](CC(=O)N1CCC[C@H]1[C@H](OC)[C@@H](C)C(=O)N[C@H](C)[C@@H](O)c1ccccc1)OC)N(C)C(=O)[C@@H](NC(=O)[C@H](C(C)C)N(C)C(=O)OCc1ccc(NC(=O)[C@H](C)NC(=O)[C@@H](NC(=O)CCOCCN2CCC(C(=O)NCCNc3ncc(-c4cc(C)cc(F)c4)c(N4CCC(N)CC4)c3-c3nc4ccc(Cl)cc4[nH]3)CC2)C(C)C)c(O[C@@H]2O[C@H](C(=O)O)[C@@H](O)[C@H](O)[C@H]2O)c1)C(C)C` [Compound 93], the EC50 in experiment [1] was 120 nM; in experiment [2] it was 33 nM; in experiment [3], 0.28 nM.
Taken in the same sequence, the figures for `CC[C@H](C)[C@@H]([C@@H](CC(=O)N1CCC[C@H]1[C@H](OC)[C@@H](C)C(=O)N[C@H](C)[C@@H](O)c1ccccc1)OC)N(C)C(=O)[C@@H](NC(=O)[C@H](C(C)C)N(C)C(=O)OCc1ccc(NC(=O)[C@H](CCCNC(N)=O)NC(=O)[C@@H](NC(=O)CCOCCC(=O)NCCNc2ncc(-c3cc(C)cc(F)c3)c(N3CCC(N)CC3)c2-c2nc3ccc(Cl)cc3[nH]2)C(C)C)cc1C(=O)N[C@@H](CCCNC(=O)CCCCc1ccc(I)cc1)C(=O)O)C(C)C` [Compound 247] were 18 nM, 1.4 nM and 0.19 nM.
Consider `CC[C@H](C)[C@@H]([C@@H](CC(=O)N1CCC[C@H]1[C@H](OC)[C@@H](C)C(=O)N[C@H](C)[C@@H](O)c1ccccc1)OC)N(C)C(=O)[C@@H](NC(=O)[C@H](C(C)C)N(C)C(=O)OCc1ccc(NC(=O)[C@H](C)NC(=O)[C@@H](NC(=O)CCOCCC(=O)NCCNc2ncc(-c3cc(C)cc(F)c3)c(N3CCC(N)CC3)c2-c2cc3ccc(OC)cc3[nH]2)C(C)C)c(O[C@@H]2O[C@H](C(=O)O)[C@@H](O)[C@H](O)[C@H]2O)c1)C(C)C` [Compound 117], for which the concentration for a half-maximal effect (EC50) is 58 nM in experiment [1], 19 nM in experiment [2] and 0.46 nM in experiment [3].
On the same counts, the results for `CC[C@H](C)[C@@H]([C@@H](CC(=O)N1CCC[C@H]1[C@H](OC)[C@@H](C)C(=O)N[C@H](C)[C@@H](O)c1ccccc1)OC)N(C)C(=O)[C@@H](NC(=O)[C@H](C(C)C)N(C)C(=O)OCc1ccc(NC(=O)[C@H](CCCNC(N)=O)NC(=O)[C@@H](NC(=O)c2cc(NC(=O)CCOCCn3cc(CCC(=O)NCCNc4ncc(-c5cc(C)cc(F)c5)c(N5CCC(N)CC5)c4-c4nc5ccc(Cl)cc5[nH]4)nn3)cc(C(=O)NCC(=O)O)c2)C(C)C)cc1)C(C)C` [Compound 155] are 300 nM, 10 nM and 0.44 nM.
Regarding `CC[C@H](C)[C@@H]([C@@H](CC(=O)N1CCC[C@H]1[C@H](OC)[C@@H](C)C(=O)N[C@H](C)[C@@H](O)c1ccccc1)OC)N(C)C(=O)[C@@H](NC(=O)[C@H](C(C)C)N(C)C(=O)OCc1ccc(NC(=O)[C@H](CCCNC(N)=O)NC(=O)[C@@H](NC(=O)CCOCCC(=O)NCCNc2ncc(-c3cc(C)cc(F)c3)c(N3CCC(N)CC3)c2-c2nc3ccc(Cl)cc3[nH]2)C(C)C)c(OCC(=O)O)c1)C(C)C` [Compound 18], the EC50 in experiment [1] is 7.8 nM; in experiment [2], 6.4 nM; in experiment [3], 0.097 nM.
Take `CC[C@H](C)[C@@H]([C@@H](CC(=O)N1CCC[C@H]1[C@H](OC)[C@@H](C)C(=O)N[C@H](C)[C@@H](O)c1ccccc1)OC)N(C)C(=O)[C@@H](NC(=O)[C@H](C(C)C)N(C)C(=O)OCc1ccc(NC(=O)[C@H](CCCNC(N)=O)NC(=O)[C@@H](NC(=O)c2cc(NCCOCCC(=O)NCCNc3ncc(-c4cc(C)cc(F)c4)c(N4CCC(N)CC4)c3-c3nc4ccc(Cl)cc4[nH]3)cc(C(=O)NCCN)c2)C(C)C)cc1)C(C)C` [Compound 184]: the 50% effective concentration (EC50) in experiment [1] came to 240 nM; in experiment [2], 1.8 nM; in experiment [3] it was 0.063 nM.
As to `CC[C@H](C)[C@@H]([C@@H](CC(=O)N1CCC[C@H]1[C@H](OC)[C@@H](C)C(=O)N[C@H](C)[C@@H](O)c1ccccc1)OC)N(C)C(=O)[C@@H](NC(=O)[C@H](C(C)C)N(C)C(=O)OCc1ccc(NC(=O)[C@H](CCCNC(N)=O)NC(=O)[C@@H](NC(=O)[C@H](CCC(=O)O)NC(=O)CCOCCC(=O)NCCNc2ncc(-c3cc(C)cc(F)c3)c(N3CCC(N)CC3)c2-c2nc3ccc(Cl)cc3[nH]2)C(C)C)cc1C(=O)NOCCN)C(C)C` [Compound 90], the concentration giving a half-maximal response (EC50) in experiment [1] was found to be 480 nM; in experiment [2] it was 5.5 nM; in experiment [3], 0.66 nM.
As for `CC[C@H](C)[C@@H]([C@@H](CC(=O)N1CCC[C@H]1[C@H](OC)[C@@H](C)C(=O)N[C@H](C)[C@@H](O)c1ccccc1)OC)N(C)C(=O)[C@@H](NC(=O)[C@H](C(C)C)N(C)C(=O)OCc1ccc(NC(=O)[C@H](C)NC(=O)[C@@H](NC(=O)CCOCCC(=O)NCCNc2ncc(-c3cc(C)cc(F)c3)c(N3CCC(N)CC3)c2-c2nc3cc(F)c(F)cc3[nH]2)C(C)C)c(O[C@@H]2O[C@H](C(=O)O)[C@@H](O)[C@H](O)[C@H]2O)c1)C(C)C` [Compound 108], the EC50 was determined as 52 nM in experiment [1], 8.2 nM in experiment [2] and 0.18 nM in experiment [3].
For the molecule `CC[C@H](C)[C@@H]([C@@H](CC(=O)N1CCC[C@H]1[C@H](OC)[C@@H](C)C(=O)N[C@H](C)[C@@H](O)c1ccccc1)OC)N(C)C(=O)[C@@H](NC(=O)[C@H](C(C)C)N(C)C(=O)OCc1ccc(NC(=O)[C@H](CCCNC(N)=O)NC(=O)[C@@H](NC(=O)[C@@H](CCC(=O)O)NC(=O)CCOCCC(=O)NCCNc2ncc(-c3cc(C)cc(F)c3)c(N3CCC(N)CC3)c2-c2nc3ccc(Cl)cc3[nH]2)C(C)C)cc1C(=O)NCCN)C(C)C` [Compound 25], the results for the 50% effective concentration (EC50) in experiment [1], in experiment [2] and in experiment [3] were 41 nM, 6.5 nM and 0.29 nM, respectively.

Source of the values: patent publication US20260007758A1, “SO[…]-2 RECEPTOR (SST2R) NON-PEPTIDE DRUG CONJUGATES AND USES THEREOF” (Crinetics Pharmaceuticals, Inc., priority 2024, published 2026).
